We go through 29 compounds from patent US10294237B2, “Bicyclic heterocyclic amide derivative” (Sumitomo Dainippon Pharma Co., Ltd., priority 2015, dated 2019).

Test [1] concerns HCT-116 cells. Nature of the test: Test for inhibiting sphere-forming ability of cancer cells. The following applies: HCT-116 spheres, non-adherent, serum-free, 4 days, CellTiter-Glo, read-out: IC50 (Sphere IC50 value; concentration for 50% inhibition of cell proliferation). It counts as cell-based. The method, then:
(§1) The reliable methods established for measuring the self-renewal ability of cells which is one of the CSC's properties include a method for measuring the sphere-forming ability of cancer cells in non-adherent condition in the absence of serum (Cancer Res 65, 5506-5511 (2005)). HCT-116 cells were available from the American Type Culture Collection (ATCC). HCT-116 cells were cultured at 37° C. and 5% CO2 using the McCoy's 5a medium containing 10% fetal bovine serum (FBS) and 1% penicillin/streptomycin. HCT-116 cells were seeded in a 384 Well Black Clear Bottom Ultra-Low Attachment Microplate (Corning Cat. No. 3827) in an amount of 350-800 cells/well using the DMEM/F12 medium containing 2% B27 supplement (GIBCO), 20 ng/mL epidermal growth factor (EGF) (peprotech), 10 ng/mL basic fibroblast growth factor (bFGF) (peprotech), 5 μg/mL insulin (Sigma), and 1% penicillin/streptomycin. The test compounds were added into each well to adjust the final concentration of DMSO to 0.1%, and the cells were cultured for 4 days. The number of viable cells in each well was then measured with CellTiter-Glo® Luminescent Cell Viability Assay (Promega) to calculate the concentration of each test compound for 50% inhibition of cell proliferation (Sphere IC50 value; μmol/L).
The experiment of Test Example 1 was performed for the compounds of each Example. The concentrations of each test compound for 50% inhibition of cell profeliration (Sphere IC50 value; μmol/L) are shown in the following Table.
A general note: In ATP-based viability assays light output follows the ATP content of the culture.

Test [2] deals with HCT-116 cells. The test is described as follows: Anti-tumor effect to HCT-116 tumor-bearing mouse. Type of test: in vivo. The following applies: dosage 30 mg/kg, oral, administration period 17 days, nude mouse. The source says: The present compound can be used to evaluate the anti-tumor effect thereof. A 4 to 7-week-old nude mouse (BALB/cAnNCrj-nu/nu, female, CHARLES RIVER LABORATORIES JAPAN, INC.) received intradermal transplantation of HCT-116 cells (ATCC) in an amount of 3×10^6 cells/mouse around the ventral portion. The engraftment of HCT-116 cells was observed 5 to 14 days after the transplantation, and then each compound suspended in a solvent such as 0.5% methylcellulose solution was orally administrated to the mouse in a dose of 1 to 100 mg/kg one to twice daily. The tumor volume was measured over time after the administration to evaluate the effect for reducing the tumor volume by the administration of each compound. The tumor volume can be calculated from the minor axis and the major axis of the tumor measured with a digital caliper (Mitutoyo) according to the following formula: Tumor volume [mm^3]=0.5×minor axis [mm]×(major axis [mm])^2
The tumor volume in control administration group treated with only a solvent such as 0.5% methylcellulose solution was compared with that of the present compound administration group, and T/C value was calculated according the following formula to evaluate the anti-tumor effect of the present compound. T/C(%)=(the tumor volume at the end of administration in the present compound administration group−the tumor volume at the start of administration in the present compound administration group)/(the tumor volume at the end of administration in the control administration group−the tumor volume at the start of administration in the control administration group)×100
The T/C values (%) of the present compound on each dosage and administration period in the HCT-116 tumor-bearing mouse are shown below.

The subject of test [3] is HCT-116 cells. The test is described as follows: Test for inhibiting sphere-forming ability of cancer cells (in the presence of BSA). It counts as cell-based. Conditions: HCT-116 spheres, non-adherent, 5% BSA, 4 days, CellTiter-Glo, read-out: IC50 (Sphere IC50 value; concentration for 50% inhibition of cell proliferation). Here is the method: as §1, with “HCT-116” for “The reliable methods established for measuring the self-renewal ability of cells which is one of the CSC's properties include a method for measuring the sphere-forming ability of cancer cells in non-adherent condition in the absence of serum (Cancer Res 65, 5506-5511 (2005)). HCT-116”, “(Sigma), 5% bovine serum albumin (BSA),” for “(Sigma),”
The experiment of Test Example 2 was performed for the compounds of each Example. The concentrations of each test compound for 50% inhibition of cell profeliration (Sphere IC50 value; μmol/L) are shown in the following Table.

Structures are written as SMILES. A value given as a limit tells only on which side of the number the result lay.

Usually IC50 stands for the point on the concentration scale where inhibition reaches its midpoint. By T/C is commonly meant the ratio of treated to control. For `O=C(Nc1cn(Cc2cc(F)c(F)c(F)c2)cn1)c1ccc2c(c1)CCNC2` [Example 6, N-[1-(3,4,5-trifluorobenzyl)-1H-imidazol-4-yl]-1,2,3,4-tetrahydroisoquinoline-6-carboxamide], the IC50 came out at 60 nM with HCT-116 cells [1] and 50 nM in the test with HCT-116 cells [3]. This compound also returned a T/C in the test on HCT-116 cells [2] of 73%.

Consider `Cc1ccc(Cn2cnc(NC(=O)c3ccc4c(c3)CCNC4)c2)cc1C(F)(F)F` [Example 97, N-{1-[4-methyl-3-(trifluoromethyl)benzyl]-1H-imidazol-4-yl}-1,2,3,4-tetrahydroisoquinoline-6-carboxamide], for which the IC50 turned out to be 70 nM in the test with HCT-116 cells [1] (Homo sapiens, 96 h) and 590 nM in the test on HCT-116 cells [3] (Homo sapiens, HCT-116, 96 h).

Take `O=C(Nc1cn(Cc2cc(F)cc(Cl)c2)cn1)c1cnc2c(c1)CCNC2` [Example 52, N-[1-(3-chloro-5-fluorobenzyl)-1H-imidazol-4-yl]-5,6,7,8-tetrahydro-1,7-naphthyridine-3-carboxamide]: the IC50 with HCT-116 cells [1] (Homo sapiens, 96 h) amounted to 60 nM; with HCT-116 cells [3] (Homo sapiens, HCT-116, 96 h), 60 nM.

On to `O=C(Nc1cn(Cc2cccc(C(F)(F)F)c2)cn1)c1cc2c(s1)CCNC2` [Example 16], for which the IC50 came out at 5850 nM with HCT-116 cells [1] (Homo sapiens, 96 h) and 6000 nM in the test on HCT-116 cells [3] (Homo sapiens, HCT-116, 96 h).

`O=C(Nc1cn(Cc2ccc(F)c(C(F)(F)F)c2)cn1)c1ccc2c(c1)CCNC2` [Example 92, N-{1-[4-fluoro-3-(trifluoromethyl)benzyl]-1H-imidazol-4-yl}-1,2,3,4-tetrahydroisoquinoline-6-carboxamide]: the IC50 in the test with HCT-116 cells [1] (Homo sapiens, 96 h) was found to be 70 nM; in the test on HCT-116 cells [3] (Homo sapiens, HCT-116, 96 h), 90 nM.

As to `O=C(Nc1cn(Cc2cccc(C(F)(F)F)c2)cn1)c1cc2c(s1)CNCC2` [Example 17], the IC50 with HCT-116 cells [1] (Homo sapiens, 96 h) is 620 nM; in the test on HCT-116 cells [3] (Homo sapiens, HCT-116, 96 h), 720 nM.

On to `O=C(Nc1cn(Cc2cccc(C(F)(F)F)c2)cn1)c1ccc2c(c1F)CCNC2` [Example 15], for which the IC50 in the test with HCT-116 cells [1] (Homo sapiens, 96 h) came out at 360 nM; with HCT-116 cells [3] (Homo sapiens, HCT-116, 96 h) it was 550 nM.

On to `O=C(Nc1cn(Cc2cccc(OC(F)(F)F)c2)cn1)c1cnc2c(c1)CCNC2` [Example 49, N-{1-[3-(trifluoromethoxy)benzyl]-1H-imidazol-4-yl}-5,6,7,8-tetrahydro-1,7-naphthyridine-3-carboxamide], for which the IC50 was 70 nM with HCT-116 cells [1] (Homo sapiens, 96 h) and 70 nM with HCT-116 cells [3] (Homo sapiens, HCT-116, 96 h).

As for `O=C(Nc1cn(CCOc2ccccc2)cn1)c1cnc2c(c1)CCNC2` [Example 116], the IC50 in the test on HCT-116 cells [1] came out at 5990 nM; in the test on HCT-116 cells [3] it was 1970 nM.

Regarding `O=C(Nc1cn(Cc2ccc3c(c2)OCO3)cn1)c1cnc2c(c1)CCNC2` [Example 119], the IC50 in the test on HCT-116 cells [1] amounted to 730 nM; in the test on HCT-116 cells [3], 630 nM.

On to `O=C(/C=C/c1ccc2c(c1)CCO2)Nc1cn(Cc2cccc(Cl)c2)cn1` [Example 41], for which the IC50 in the test on HCT-116 cells [1] (Homo sapiens, 96 h) amounted to 10 nM; in the test with HCT-116 cells [3] (Homo sapiens, HCT-116, 96 h), 20 nM.

Turning to `O=C1Nc2cc(C(=O)Nc3cn(Cc4cccc(C(F)(F)F)c4)cn3)cnc2CO1` [Example 24], the IC50 with HCT-116 cells [1] (Homo sapiens, 96 h) amounted to 520 nM; with HCT-116 cells [3] (Homo sapiens, HCT-116, 96 h), 670 nM.

Regarding `O=C(Nc1cn(Cc2cccc(Cl)c2)cn1)c1ccc2c(c1)CCNC2` [Example 45], the IC50 in the test with HCT-116 cells [1] (Homo sapiens, 96 h) worked out at 820 nM; in the test on HCT-116 cells [3] (Homo sapiens, HCT-116, 96 h), 660 nM.

On to `Cc1c(NC(=O)c2ccc3c(c2)CCNC3)ncn1Cc1cccc(C(F)(F)F)c1` [Example 21], for which the IC50 came out at 6200 nM in the test with HCT-116 cells [1] (Homo sapiens, 96 h) and 6190 nM in the test on HCT-116 cells [3] (Homo sapiens, HCT-116, 96 h).

`COc1cc(Cn2cnc(NC(=O)c3ccc4c(c3)CCNC4)c2)cc(OC)c1` [Example 94]: the IC50 in the test with HCT-116 cells [1] (Homo sapiens, 96 h) is 6990 nM; in the test on HCT-116 cells [3] (Homo sapiens, HCT-116, 96 h), 6110 nM.

As to `Cc1cccc(Cn2cnc(NC(=O)c3ccc4c(c3)CCNC4)c2)c1` [Example 80], the IC50 is 620 nM in the test on HCT-116 cells [1] and 600 nM in the test on HCT-116 cells [3].

As to `O=C(Nc1cn(Cc2ccc(F)cc2)cn1)c1ccc2c(c1)CCNC2` [Example 79], the IC50 with HCT-116 cells [1] came out at 550 nM; in the test on HCT-116 cells [3], 490 nM.

In the case of `O=C(Nc1cn(Cc2cc(F)c(F)c(F)c2)cn1)c1cc2c(cc1F)CNCC2` [Example 7], the IC50 with HCT-116 cells [1] (Homo sapiens, 96 h) is 390 nM; in the test with HCT-116 cells [3] (Homo sapiens, HCT-116, 96 h), 610 nM.

For `O=C(Nc1cn(CC2CCCCC2)cn1)c1cnc2c(c1)CCNC2` [Example 55], the IC50 with HCT-116 cells [1] came to 80 nM; in the test on HCT-116 cells [3] it was 50 nM.

Turning to `COc1cccc(Cn2cnc(NC(=O)c3cnc4c(c3)CCNC4)c2)c1` [Example 58], the figures for the IC50 in the test with HCT-116 cells [1] and in the test on HCT-116 cells [3] were 180 nM and 80 nM, respectively.

Consider `O=C(Nc1cn(Cc2cc(F)cc(Cl)c2)cn1)c1ccc2c(c1)CCNC2` [Example 91, N-[1-(3-chloro-5-fluorobenzyl)-1H-imidazol-4-yl]-1,2,3,4-tetrahydroisoquinoline-6-carboxamide], for which the IC50 with HCT-116 cells [1] (Homo sapiens, 96 h) was found to be 70 nM; in the test with HCT-116 cells [3] (Homo sapiens, HCT-116, 96 h) it was 80 nM.

In the case of `O=C(Nc1cn(Cc2cccc(Oc3ccccc3)c2)cn1)c1cnc2c(c1)CCNC2` [Example 50, N-[1-(3-phenoxybenzyl)-1H-imidazol-4-yl]-5,6,7,8-tetrahydro-1,7-naphthyridine-3-carboxamide], the IC50 in the test on HCT-116 cells [1] (Homo sapiens, 96 h) came to 50 nM; in the test with HCT-116 cells [3] (Homo sapiens, HCT-116, 96 h), 660 nM.

Regarding `CN(C)c1cccc(Cn2cnc(NC(=O)c3ccc4c(c3)CCNC4)c2)c1` [Example 105], the IC50 in the test on HCT-116 cells [1] (Homo sapiens, 96 h) turned out to be 5900 nM; with HCT-116 cells [3] (Homo sapiens, HCT-116, 96 h), 5120 nM.

In the case of `Cc1ccc(Cn2cnc(NC(=O)c3ccc4c(c3)CCNC4)c2)cc1` [Example 81], the values for the IC50 in the test with HCT-116 cells [1] and with HCT-116 cells [3] were 950 nM and 6220 nM, respectively.

Take `O=C(Nc1cn(Cc2ccc(F)c(F)c2)cn1)c1cnc2c(c1)CCNC2` [Example 48, N-[1-(3,4-difluorobenzyl)-1H-imidazol-4-yl]-5,6,7,8-tetrahydro-1,7-naphthyridine-3-carboxamide]: the IC50 in the test with HCT-116 cells [1] (Homo sapiens, 96 h) was determined as 80 nM; with HCT-116 cells [3] (Homo sapiens, HCT-116, 96 h), 60 nM.

In the case of `O=C(Nc1cn(Cc2ccc(C(F)(F)F)o2)cn1)c1ccc2c(c1)CCNC2` [Example 104], the IC50 came out at 620 nM with HCT-116 cells [1] (Homo sapiens, 96 h) and 530 nM in the test with HCT-116 cells [3] (Homo sapiens, HCT-116, 96 h).

Turning to `O=C(Nc1cn(Cc2ccccc2C(F)(F)F)cn1)c1ccc2c(c1)CCNC2` [Example 82], the IC50 worked out at 3790 nM in the test with HCT-116 cells [1] and 4900 nM in the test with HCT-116 cells [3].

With `O=C(Nc1cn(Cc2ccc(Cl)c(C(F)(F)F)c2)cn1)c1ccc2c(c1)CCNC2` [Example 93, N-{1-[4-chloro-3-(trifluoromethyl)benzyl]-1H-imidazol-4-yl}-1,2,3,4-tetrahydroisoquinoline-6-carboxamide], the IC50 was < 10 nM in the test with HCT-116 cells [1] (Homo sapiens, 96 h) and 70 nM in the test on HCT-116 cells [3] (Homo sapiens, HCT-116, 96 h).

On to `O=C(Nc1cn(Cc2cccc(Oc3ccccc3)c2)cn1)c1ccc2c(c1)CCNC2` [Example 89, N-[1-(3-phenoxybenzyl)-1H-imidazol-4-yl]-1,2,3,4-tetrahydroisoquinoline-6-carboxamide], for which the IC50 with HCT-116 cells [1] (Homo sapiens, 96 h) was 70 nM; in the test with HCT-116 cells [3] (Homo sapiens, HCT-116, 96 h), 640 nM.
